In ChEMBL document CHEMBL5726472, “Oxazolidin-2-one-pyrimidine derivatives and the use thereof as phosphatidylinositol-3-kinase inhibitors” (2019):

Tests used:
[1] = (§1) AlphaScreen (Amplified Luminescent Proximity Homogeneous Assay, ALPHA, Perkin Elmer) is a non-radioactive bead-based proximity assay technology to study biomolecular interactions in a homogenous microtiter plate format. The brand name SureFire denotes AlphaScreen assays that are adapted to quantify the phosphorylation of endogenous cellular proteins in cell lysates, by using matched antibody pairs, which consist of an anti-phospho-kinase and an anti-kinase antibody. The assay allows characterization of kinase signaling in cells as well as measurement of kinase inhibitor effects. The AlphaScreen technology provides several advantages over standard assay techniques such as ELISA, as it avoids time-consuming washing procedures and reduces plate handling. Furthermore, it is miniaturizable at least to a 384-well format and provides sensitivity down to the femtomolar range, dependent on the affinity of the antibodies included in the individual AlphaScreen SureFire assay kit. High sensitivity is reached by an intrinsic amplification mechanism, which involves production of singlet oxygen molecules. SureFire assay kits are commercially available for specific targets and include pairs of validated antibodies (PerkinElmer). This report describes common procedures applied for AlphaScreen SureFire assays and respective semi-automated steps for routine kinase inhibitor profiling in cell-based assays.The Rat-1 cell lines stably overexpressing activated PI3K class I isoforms Rat-1 pBABEpuro Myr-HA-hp110 delta (Rat-1_PI3Kdelta) and Rat-1 pBABEpuro Myr-HA-hp110alpha (Rat-1_PI3Kalpha) and Rat-1 pBABEpuro Myr-HA-hp110 beta (Rat-1_PI3beta) were prepared as described (Maira S M, Stauffer F, Brueggen J, Furet P, Schnell C, Fritsch C, Brachmann S, Chène P, de Pover A, Schoemaker K, Fabbro D, Gabriel D, Simonen M, Murphy L, Finan P, Sellers W, Garcia-Echeverria C (2008), Mol Cancer Ther. 7:1851-63 and Maira S M, Pecchi S, Brueggen J, Huh K, Schnell C, Fritsch C, Nagel T, Wiesmann M, Brachmann S, Dorsch M, Chène P, Schoemaker K, De Pover A, Menezes D, Fabbro D, Sellers W, Garcia-Echeverria C, Voliva CF (2011), Mol. Cancer Ther., accepted). All cell lines were cultivated in complete growth medium (DMEM high glucose, 10% (v/v) fetal bovine serum, 1% (v/v) MEM NEAA, 10 mM HEPES, 2 mM L-glutamine, puromycin (10 μg/mL for Rat-1_PI3Kdelta and Rat-1_PI3Kalpha, 4 ug/mL for Rat-1_PI3beta), 1% (v/v) Pen/Strep) to 90% confluency at 37° C./5% CO2/90% humidity in a humidified CO2 incubator and were split twice a week.The following materials were used for p-AKT(5473) detection in Rat-1 cell lysates: Dulbecco's modified Eagle's medium (DMEM) high glucose (Gibco Invitrogen, Basel, Switzerland, Cat. No. 41965), Heat Inactivated Fetal Bovine Serum, Qualified (HI FBS; Gibco Invitrogen, Basel, Switzerland, Lot. No. 16140), MEM non essential amino acids (NEAA; Gibco Invitrogen, Basel, Switzerland, Cat. No. 11140), HEPES (Gibco Invitrogen, Basel, Switzerland, Cat. No. 15630), Penicillin/Streptomycin (Pen/Strep, 100x; Gibco Invitrogen, Basel, Switzerland, Cat. No. 15140-122), L-Glutamine (Gibco Invitrogen, Basel, Switzerland, Cat. No. 25030), Puromycin (Sigma Aldrich, Buchs, Switzerland, Cat. No. P9620), DMSO (MERCK, Dietikon, Switzerland, Cat. No. 8.02912.2500), H2O, MilliQ-H2O unless otherwise stated (MILLIPORE QGARDOOR1, Millipore, Zug, Switzerland), Bovine serum albumine (BSA; Sigma Aldrich, Buchs, Switzerland Cat. No. A8412), SureFire p-Akt ½ (Ser473) Assay Kit (PerkinElmer, Schwerzenbach, Switzerland, Cat. No. TGRAS50K).The p-Akt(5473) SureFire assay measures the phosphorylation of endogenous cellular Akt ½ at Ser473 in cell lysates. Using Rat-1 cells stably expressing myr-HA-tagged versions of the human PI3Kdelta, PI3Kalpha, or PI3Kbeta p110 catalytic subunit isoforms, the assay was developed as a two-plate protocol in a 384-well format. For compound testing, the cells were seeded at a density of 4000 (Rat-1_PI3Kdelta), 7500 (Rat-1_PI3Kalpha).
[2] = as §1, with “No. 16140), MEM non essential amino acids (NEAA; Gibco Invitrogen, Basel, Switzerland, Cat. No. 11140), HEPES (Gibco Invitrogen, Basel, Switzerland, Cat. No. 15630), Penicillin/Streptomycin (Pen/Strep, 100x; Gibco Invitrogen, Basel, Switzerland, Cat. No. 15140-122), L-Glutamine (Gibco Invitrogen, Basel, Switzerland, Cat. No. 25030), Puromycin (Sigma Aldrich, Buchs, Switzerland, Cat. No. P9620), DMSO (MERCK, Dietikon, Switzerland, Cat. No. 8.02912.2500), H2O, MilliQ-H2O unless otherwise stated (MILLIPORE QGARDOOR1, Millipore, Zug, Switzerland), Bovine serum albumine (BSA; Sigma Aldrich, Buchs, Switzerland Cat. No. A8412), SureFire p-Akt ½ (Ser473) Assay Kit (PerkinElmer, Schwerzenbach, Switzerland, Cat. No. TGRAS50K).The p-Akt(5473) SureFire assay measures the phosphorylation of endogenous cellular Akt ½ at Ser473 in cell lysates. Using Rat-1 cells stably expressing myr-HA-tagged versions of the human PI3Kdelta, PI3Kalpha, or PI3Kbeta p110 catalytic subunit isoforms, the assay was developed as a two-plate protocol in a 384-well format. For compound testing, the cells were seeded at a density of 4000 (Rat-1_PI3Kdelta), 7500 (Rat-1_PI3Kalpha).” left out

In the case of Nc1ncc(-c2cc(N3CCN(c4ccccc4)C3=O)nc(N3CCOCC3)n2)c(C(F)(F)F)n1, the IC50 [1] is reported as 1580 nM and the IC50 [2] is reported as 1470 nM.

Nc1ncc(-c2cc(N3CCOCC3)nc(N3CCOCC3)n2)c(C(F)(F)F)n1 showed an IC50 [1] of 156 nM and an IC50 [2] of 139 nM.

With Nc1ncc(-c2cc(N3C(=O)O[C@@H](c4ccc(OCCO)cc4)[C@@H]3CO)nc(N3CCOCC3)n2)c(C(F)(F)F)n1 the IC50 [1] was < 3 nM and the IC50 [2] was < 3 nM.

For Nc1ncc(-c2cc(N3CCC(=O)CC3)nc(N3CCOCC3)n2)c(C(F)(F)F)n1, the IC50 [1] was 5310 nM and the IC50 [2] was 6540 nM.

In the case of Nc1ncc(-c2cc(N3CCOC(c4ccccc4)C3)nc(N3CCOCC3)n2)c(C(F)(F)F)n1 (stereo unspecified), the IC50 [1] is reported as > 10000 nM.

Nc1ncc(-c2cc(N3CCCCC3=O)nc(N3CCOCC3)n2)c(C(F)(F)F)n1 gave an IC50 [1] of 1540 nM and an IC50 [2] of 1040 nM.
